Test results as given in ChEMBL document CHEMBL3228042, “Stereochemical aspects of the metabolism of 5-(4'-fluorophenyl)-5-phenylhydantoin in the rat” (J Med Chem, 1979).

Assays:
Format in all cases: ADME, organism-based
Conditions in all cases: in vivo
[1] = Drug metabolism in ip dosed Wistar rat assessed as […] level in urine up to 96 hrs by GC-MS analysis
[2] = Drug metabolism in ip dosed Wistar rat assessed as (R,S)-5-(3',4'-dimethoxyphenyl)-5-(4'-fluorophenyl)hydantoin level in urine up to 96 hrs by GC-MS analysis
[3] = Drug metabolism in ip dosed Wistar rat assessed as 5-(4'-fluorophenyl)-5-(4'-hydroxyphenyl)hydantoin level in urine up to 96 hrs by GC-MS analysis
[4] = Drug metabolism in ip dosed Wistar rat assessed as 5-(3',4'-dihydroxyphenyl)-5-(4'-fluorophenyl)hydantoin level in urine up to 96 hrs by GC-MS analysis
[5] = Drug metabolism in ip dosed Wistar rat assessed as 3'-O-methyl derivative level in urine up to 96 hrs by GC-MS analysis
[6] = Drug metabolism in ip dosed Wistar rat assessed as (R)-(-)-5-(4'-fluorphenyl)-5-(4'-hydroxyphenyl)hydantoin level in urine up to 96 hrs by TLC analysis

Measured: Drug metabolism

O=C1NC(=O)C(c2ccccc2)(c2ccc(F)cc2)N1 (stereo unspecified)
metabolite_detected: [1] | [2] | [3] | [4] | [5]

O=C1NC(=O)C(c2ccc(O)cc2)(c2ccc(F)cc2)N1 (racemic)
metabolite_detected: [6]

O=C1[N-]C(=O)C(c2ccccc2)(c2ccc(F)cc2)N1.[Na+] (racemic)
metabolite_detected: [1] | [2] | [3] | [4] | [5]
